# Values joined by “and” are separate entries in the source; they are usually repeats but may differ in a detail not shown here. Equal entries are not always repeated. Where two headings read alike, the source gives them in different places.
# Experiments:
# [1] = target: T1, serotonin transporters (SERT) (Homo sapiens, UniProt P31645); assay: PET study of SERT occupancy with 11C-MADAM in healthy male volunteers; format: in vivo; settings: read-out: SERT RO %; for receptor occupancy at 10 mg: 10 mg once a day; for receptor occupancy at 30 mg: 30 mg once a day; for receptor occupancy at 45 mg: 45 mg once a day (30 mg for 3 days first); for receptor occupancy at 60 mg: 60 mg once a day (30 mg for 3 days first)
# T1 construct: evaluate in healthy male volunteers with respect to safety, tolerability and pharmacokinetics as well as DAT and SERT occupancy; from tissue; host or cells: living human brain (striatum, thalamus), PET in healthy male volunteers
# T1 sequence (P31645 whole entry): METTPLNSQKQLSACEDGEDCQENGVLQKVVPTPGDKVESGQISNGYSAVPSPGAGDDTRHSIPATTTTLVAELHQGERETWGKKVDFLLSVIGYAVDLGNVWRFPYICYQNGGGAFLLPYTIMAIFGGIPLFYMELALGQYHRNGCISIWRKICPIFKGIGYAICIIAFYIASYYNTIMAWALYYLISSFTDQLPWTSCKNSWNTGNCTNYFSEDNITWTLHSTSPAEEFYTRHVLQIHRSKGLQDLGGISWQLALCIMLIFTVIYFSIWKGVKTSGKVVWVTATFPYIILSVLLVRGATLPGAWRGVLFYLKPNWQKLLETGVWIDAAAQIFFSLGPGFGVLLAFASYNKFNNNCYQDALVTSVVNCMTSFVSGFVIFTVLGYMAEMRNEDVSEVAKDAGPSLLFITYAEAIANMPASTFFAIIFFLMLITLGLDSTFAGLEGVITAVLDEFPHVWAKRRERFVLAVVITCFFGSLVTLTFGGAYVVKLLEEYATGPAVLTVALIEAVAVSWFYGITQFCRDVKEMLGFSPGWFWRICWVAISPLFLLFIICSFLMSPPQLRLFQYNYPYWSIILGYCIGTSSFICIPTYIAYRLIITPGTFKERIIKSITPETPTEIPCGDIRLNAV
# Excerpt: The PET study was a part of a strategy in previous clinical development of the compound of formula I to evaluate in healthy male volunteers with respect to safety, tolerability and pharmacokinetics as well as DAT and SERT occupancy.
# The relationship between plasma the compound of formula I concentration and SERT occupancies, using the individual values, is presented in FIG. 8 and FIG. 9. The numeric values for the individual SERT and […] occupancy and the corresponding plasma concentrations are tabulated in Example 12.
# (§1) Striatal receptor occupancy at dopamine transporters (DAT) and serotonin transporters (SERT) with plasma concentrations of Formula I at the midpoint time of the post dosing PET (positron emission tomography) scans (T=4 and 24) after once-a-day multiple doses of 3-60 mg and 10-60 mg for SERT and DAT healthy male cohorts, respectively (Tables below, RO stands for receptor occupancy). Post dosing PET scans were conducted at day 10 (4 h post last dose) and day 14 (24 h post last dose) assuming steady state conditions, using the specific DAT and SERT tracers ^11C-PE2I and ^11C-MADAM, respectively. For 45 mg and 60 mg cohorts, there was titration by administration of 30 mg for 3 days and then from day 4 the specified dose. Representative reports on using these two tracers are Leamed-Coughlin S M et al, Biol Psychiatry. 2003, 54(8):800-5; Jucaite A et al, Eur J Nucl Med Mol Imaging. 2006, 33(6):657-68; and Lundberg J et al, Int J Neuropsychopharmacol. 2007, 10(6):777-85.
# [2] = target: T2, dopamine transporters (DAT) (Homo sapiens, UniProt Q01959); assay: PET study of striatal DAT occupancy with 11C-PE2I in healthy male volunteers; format: in vivo
# T2 construct: evaluate in healthy male volunteers with respect to safety, tolerability and pharmacokinetics as well as DAT and SERT occupancy; from tissue; host or cells: living human brain (striatum), PET in healthy male volunteers
# T2 sequence (Q01959 whole entry): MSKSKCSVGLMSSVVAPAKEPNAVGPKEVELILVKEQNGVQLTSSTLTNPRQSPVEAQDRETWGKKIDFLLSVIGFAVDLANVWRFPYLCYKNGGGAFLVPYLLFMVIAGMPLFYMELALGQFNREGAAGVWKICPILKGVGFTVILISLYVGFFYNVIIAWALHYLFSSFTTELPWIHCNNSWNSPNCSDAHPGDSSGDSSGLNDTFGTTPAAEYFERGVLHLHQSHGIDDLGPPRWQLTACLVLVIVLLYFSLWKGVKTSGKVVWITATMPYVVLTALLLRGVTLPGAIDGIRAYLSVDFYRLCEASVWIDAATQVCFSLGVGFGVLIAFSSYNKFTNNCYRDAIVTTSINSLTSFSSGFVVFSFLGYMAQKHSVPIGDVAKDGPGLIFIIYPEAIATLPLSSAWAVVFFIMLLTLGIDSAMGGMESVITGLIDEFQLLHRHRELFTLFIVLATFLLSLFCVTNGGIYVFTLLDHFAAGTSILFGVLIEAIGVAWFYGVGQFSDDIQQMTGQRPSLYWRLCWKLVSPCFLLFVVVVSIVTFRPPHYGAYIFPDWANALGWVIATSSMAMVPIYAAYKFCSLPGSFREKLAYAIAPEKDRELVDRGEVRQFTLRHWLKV
# Excerpt: The PET study was a part of a strategy in previous clinical development of the compound of formula I to evaluate in healthy male volunteers with respect to safety, tolerability and pharmacokinetics as well as DAT and SERT occupancy. […]
# as §1
# [3] = Plasma concentration of Formula I at midpoint time of post dosing PET scans; format: in vivo; settings: male, human; for concentration at 24 h: day 14, 24 h post last dose
# Excerpt: In alternative embodiments, provided are methods comprising administering a drug in an amount sufficient to achieve a therapeutic level range of plasma concentration (optionally human plasma concentration) at a steady state, and this example describes an exemplary analytical method to determine the concentration of Formula I in human plasma using an LC-MS-MS method known to the people skilled in the art, and an exemplary bioanalysis method to determine the concentration of formula I in human EDTA plasma.
# (§2) A LC-MS/MS method was developed and validated for the quantitation of Formula I in 0.250 mL of human EDTA plasma in a total of 7 runs, out of which 1 run was rejected. The method utilized stable labeled Formula I as an internal standard. After the addition of the internal standard (equivalent to 285.4 ng/mL in human EDTA plasma) and 0.250 mL of each quality control (QC) sample and calibration standard, 0.525 mL of methyl t-butyl ether (MTBE) was added to the 96-well sample tubes. The organic layer was removed and evaporated to dryness using a liquid-liquid extraction (LLE). The residue was reconstituted and injected into the LC-MS/MS system. Chromatographic separation was achieved through gradient elution on an Acquity UPLC, BEH Shield RP18™, 50×2.1 mm, 1.7 μm particle size column. The mobile phase contained water, acetonitrile, ammonium formate, and formic acid. Detection was accomplished using a Sciex API 4000 tandem mass spectrometer in positive ion electrospray SRM mode. The standard curves, which ranged from 1.00 to 1000 ng/mL for Formula I, were fitted to a 1/×2 weighted linear regression model. The intra-assay precisions, based on four levels of analytical QCs (low, mid, GM, and high), were within 4.2% CV and inter-assay precisions were within 7.2% CV for the analyte. The assay accuracy, expressed as % DEV, was within 6.4% of the nominal concentration values for the analyte. […] The LLOQ response ratio, when compared to the QCO response ratio, was >, 5 in all matrix lots. The analyte was stable in human EDTA plasma for at least 24 h at room temperature, for at least 14 days at −20° C., and following at least 3 freeze-thaw cycles. The processed samples were stable for 72 hours (h) at room temperature.
# as §1
# [4] = 14-day once-a-day oral multiple ascending dose PK study, day-14 data; format: in vivo, human; settings: for Cmax: read-out: Formula I plasma concentration (Cmax); for concentration at 0 h: day 14, blood draw at 0 h (pre-dose trough)
# Method: as §2
# Tabulated, day-14 PK data (Cmax, Ctrough and AUC) for healthy humans in a 14-day, once-a-day oral dosing, multiple ascending dose study of compound of Formula I.
# [5] = Stability of Formula I in human EDTA plasma (LC-MS/MS validation); format: in vitro ADME
# Method: as §2
# [6] = target: Transporter, Dopamine (DAT) (Homo sapiens, UniProt Q01959); assay: DAT radioligand binding ([125I] RTI-55), Eurofins; settings: read-out: DAT, % inhibition, 10 nM compound
# Transporter, Dopamine (DAT), sequence (Q01959 whole entry): as above
# Method: Source: Human recombinant CHO—S cells;
# Incubation Time/Temp: 3 hours @ 4° C.;
# Incubation Buffer: 50 mM Tris-HCl, pH 7.4, 100 mM NaCl, 1 μM Leupeptin, 10 μM PMSF;
# Non-Specific Ligand: 10.0 μM Nomifensine;
# Specific Binding: 90% (Historical Values);
# Quantitation Method: Radioligand Binding;
# [7] = 24 h, day 14, 24 h post last dose
smiles,measurement,setting,value
"Clc1ccc(C2CNCc3cc(-c4ccc5ncnn5c4)ccc32)cc1Cl (stereo not shown) [Formula I, 7-([1,2,4]triazolo[1,5-a]pyridin-6-yl)-4-(3,4-dichlorophenyl)-1,2,3,4-tetrahydroisoquinoline]",receptor occupancy at 10 mg,"[1]; 4 h, day 10, 4 h post dose",53%
same,receptor occupancy at 30 mg,"[1]; 4 h, day 10, 4 h post dose",71%
same,receptor occupancy at 45 mg,"[1]; 4 h, day 10, 4 h post dose",73%
same,receptor occupancy at 60 mg,"[1]; 4 h, day 10, 4 h post dose",70%
same,receptor occupancy at 10 mg,[1]; [7],47%
same,receptor occupancy at 30 mg,[1]; [7],69%
same,receptor occupancy at 45 mg,[1]; [7],73%
same,receptor occupancy at 60 mg,[1]; [7],76%
same,DAT RO %,"[2]; 10 mg once a day, day 10, 4 h post dose",12% and 21% and 18%
same,DAT RO %,"[2]; 30 mg once a day, day 10, 4 h post dose",22% and 43% and 36%
same,DAT RO %,"[2]; 30 mg once a day, day 14, 24 h post last dose",26% and 23% and 43%
same,DAT RO %,"[2]; 45 mg once a day (30 mg for 3 days first), day 10, 4 h post dose",42% and 44% and 48%
same,DAT RO %,"[2]; 45 mg once a day (30 mg for 3 days first), day 14, 24 h post last dose",36% and 41% and 43%
same,DAT RO %,"[2]; 60 mg once a day (30 mg for 3 days first), day 10 (subject 77: day 11), 4 h post dose",60% and 59%
same,DAT RO %,"[2]; 60 mg once a day (30 mg for 3 days first), day 14, 24 h post last dose",48% and 49%
same,DAT occupancy,[2]; following multiple doses of 60 mg,up to 60%
same,concentration at 4 h,"[3]; 3 mg, SERT cohort, 3 mg once a day, day 10, 4 h post dose",68 ng/mL
same,concentration at 24 h,"[3]; 3 mg, SERT cohort, 3 mg once a day",52 ng/mL
same,concentration at 4 h,"[3]; 10 mg, DAT cohort, 10 mg once a day, day 10, 4 h post dose",204 ng/mL
same,concentration at 24 h,"[3]; 10 mg, DAT cohort, 10 mg once a day",141 ng/mL
same,concentration at 4 h,"[3]; 10 mg, SERT cohort, 10 mg once a day, day 10, 4 h post dose",201 ng/mL
same,concentration at 24 h,"[3]; 10 mg, SERT cohort, 10 mg once a day",127 ng/mL
same,concentration at 4 h,"[3]; 30 mg, SERT cohort, 30 mg once a day, day 10, 4 h post dose",691 ng/mL
same,concentration at 24 h,"[3]; 30 mg, SERT cohort, 30 mg once a day",668 ng/mL
same,concentration at 4 h,"[3]; 45 mg, DAT cohort, 45 mg once a day (30 mg for 3 days first), day 10, 4 h post dose",809 ng/mL
same,concentration at 24 h,"[3]; 45 mg, DAT cohort, 45 mg once a day (30 mg for 3 days first)",647 ng/mL
same,concentration at 4 h,"[3]; 45 mg, SERT cohort, 45 mg once a day (30 mg for 3 days first), day 10, 4 h post dose",1160 ng/mL
same,concentration at 24 h,"[3]; 45 mg, SERT cohort, 45 mg once a day (30 mg for 3 days first)",940 ng/mL
same,concentration at 4 h,"[3]; 60 mg, DAT cohort, 60 mg once a day (30 mg for 3 days first), day 10 (subject 77: day 11), 4 h post dose",1340 ng/mL
same,concentration at 24 h,"[3]; 60 mg, DAT cohort, 60 mg once a day (30 mg for 3 days first)",920 ng/mL
same,Formula I plasma concentration,"[4]; 3 mg daily, male, day 14, draw at about 23-24 h (Ctrough)",42 ng/mL
same,Cmax,"[4]; female, human, plasma, oral, 45 mg, 45 mg daily, day 14, draw flagged Cmax (1-3 h)",1680 ng/mL
same,concentration at 0 h,"[4]; female, human, plasma, oral, 45 mg, 45 mg daily, female, read-out: Formula I plasma concentration",997 ng/mL
same,concentration at 24 h,"[4]; female, human, plasma, oral, 45 mg, 45 mg daily, female, day 14, draw at about 24 h (Ctrough), read-out: Formula I plasma concentration",901 ng/mL
same,AUC,"[4]; female, human, plasma, oral, 45 mg, 45 mg daily, female, day 14, printed in the 24 h draw line",10100 ng·h/mL
same,concentration at 0 h,"[4]; male, human, plasma, oral, 3 mg, 3 mg daily, male, read-out: Formula I plasma concentration",42 ng/mL
same,Cmax,"[4]; male, human, plasma, oral, 3 mg, 3 mg daily, male, day 14, draw flagged Cmax (1-3 h)",66 ng/mL
same,AUC,"[4]; male, human, plasma, oral, 3 mg, 3 mg daily, male, day 14, printed in the 23-24 h draw line",439 ng·h/mL
same,Cmax,"[4]; male, human, plasma, oral, 10 mg, 10 mg daily, day 14, draw flagged Cmax (1-3 h)",218 ng/mL
same,concentration at 0 h,"[4]; male, human, plasma, oral, 10 mg, 10 mg daily, male, read-out: Formula I plasma concentration",125 ng/mL
same,AUC,"[4]; male, human, plasma, oral, 10 mg, 10 mg daily, male, day 14, printed in the 23-24 h draw line",1260 ng·h/mL
same,Cmax,"[4]; male, human, plasma, oral, 45 mg, 45 mg daily, day 14, draw flagged Cmax (1-2 h)",1150 ng/mL
same,concentration at 0 h,"[4]; male, human, plasma, oral, 45 mg, 45 mg daily, male, read-out: Formula I plasma concentration",635 ng/mL
same,concentration at 23 h,"[4]; male, human, plasma, oral, 45 mg, 45 mg daily, male, day 14, draw at 23 h (Ctrough), read-out: Formula I plasma concentration",672 ng/mL
same,AUC,"[4]; male, human, plasma, oral, 45 mg, 45 mg daily, male, day 14, printed in the 23 h draw line",6280 ng·h/mL
same,stable in human EDTA plasma,[5]; freeze-thaw,at least 3 freeze-thaw cycles
same,stable in human EDTA plasma,[5]; room temperature,at least 24 h
same,stable in human EDTA plasma,[5]; −20° C.,at least 14 days
same,inhibition at 0.01 µM,[6],47%

# — patent US20230002377A1, “THERAPEUTIC COMBINATIONS OF DRUGS AND METHODS OF USING THEM” (HARMONY BIOSCIENCES, LLC, priority 2020, published 2023)
